Measurements taken from ChEMBL document CHEMBL1201862, “PubChem BioAssay data set” (2004).
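Results reflect a 48-hour exposure of cells in 96-well plates to compound at five concentrations. Here, GI50 denotes the concentration required for 50% inhibition of growth.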 Calls of active or inactive are those of the source. Cut-off read from the data, not from the text of the source: active = GI50 up to about 1.1 µM and inactive = higher.

Tests used:
Assay in all cases: growth of human tumour cells (NCI), 48 h
OVCAR-5 = system: OVCAR-5
SK-OV-3 = system: SK-OV-3
OVCAR-4 = system: OVCAR-4
SK-MEL-5 = system: SK-MEL-5
U-251 = system: U-251
LOX IMVI = system: LOX IMVI
RPMI-8226 = system: RPMI-8226
TK-10 = system: TK-10
SW-620 = system: SW-620
DU-145 = system: DU-145
HOP-62 = system: HOP-62
CAKI-1 = system: CAKI-1
RXF 393 = system: RXF 393
MDA-MB-435 = system: MDA-MB-435
OVCAR-3 = system: OVCAR-3
NCI-H23 = system: NCI-H23
SF-295 = system: SF-295
CCRF-CEM = system: CCRF-CEM
K562 = system: K562
SN12C = system: SN12C
MDA-MB-231 = system: MDA-MB-231
UACC-62 = system: UACC-62
MDA-N = system: MDA-N
A549 = system: A549
SF-539 = system: SF-539
COLO 205 = system: COLO 205
SNB-75 = system: SNB-75
A498 = system: A498
BT-549 = system: BT-549
EKVX = system: EKVX
HCT-15 = system: HCT-15
KM12 = system: KM12
ACHN = system: ACHN
NCI-H226 = system: NCI-H226
Hs-578T = system: Hs-578T
NCI-H460 = system: NCI-H460
UACC-257 = system: UACC-257
UO-31 = system: UO-31
786-0 = system: 786-0
SK-MEL-28 = system: SK-MEL-28
HL-60 = system: HL-60
HT-29 = system: HT-29
SF-268 = system: SF-268
SK-MEL-2 = system: SK-MEL-2
IGROV-1 = system: IGROV-1
NCI-H522 = system: NCI-H522
PC-3 = system: PC-3
MOLT-4 = system: MOLT-4
T47D = system: T47D
SR = system: SR
SNB-19 = system: SNB-19
MCF7 = system: MCF7
M14 = system: M14
HCT-116 = system: HCT-116
NCI/ADR-RES = system: NCI/ADR-RES
HCC 2998 = system: HCC 2998
HOP-92 = system: HOP-92
OVCAR-8 = system: OVCAR-8
Malme-3M = system: Malme-3M

Measured: GI50

CN(C)CCOc1ccc(-c2c(Oc3ccc(Cl)cc3)c(=O)oc3ccccc23)cc1
inactive: OVCAR-5 15.8 µM | SK-OV-3 10.4 µM | OVCAR-4 9.68 µM | SK-MEL-5 2.01 µM | U-251 3.64 µM | LOX IMVI 6.98 µM | RPMI-8226 8.43 µM | TK-10 10.4 µM | SW-620 > 23.5 µM | DU-145 10.5 µM | HOP-62 21.9 µM | CAKI-1 12.9 µM | RXF 393 8.09 µM | MDA-MB-435 2.67 µM | OVCAR-3 12.4 µM | NCI-H23 14.5 µM | SF-295 5.36 µM | CCRF-CEM 4.41 µM | K562 3.84 µM | SN12C 13.7 µM | MDA-MB-231 7.78 µM | UACC-62 4.97 µM | MDA-N 2.61 µM | A549 4.97 µM | SF-539 9.84 µM | COLO 205 3.61 µM | SNB-75 6.56 µM | A498 19.4 µM | BT-549 15 µM | EKVX 12.3 µM | KM12 9.57 µM | ACHN 18.6 µM | NCI-H226 > 35.6 µM | Hs-578T 8.59 µM | NCI-H460 7.35 µM | UACC-257 5.13 µM | UO-31 5.43 µM | 786-0 4.27 µM | SK-MEL-28 3.27 µM | HL-60 5.61 µM | HT-29 > 20.5 µM | SF-268 8.69 µM | SK-MEL-2 7.59 µM | IGROV-1 4.7 µM | NCI-H522 8.75 µM | PC-3 6.64 µM | MOLT-4 5.47 µM | T47D 8.87 µM | SR 4.09 µM | SNB-19 16.9 µM | MCF7 4.41 µM | M14 2.21 µM | HCT-116 3.82 µM | NCI/ADR-RES > 35.1 µM | HCC 2998 3.15 µM | HOP-92 19.5 µM | OVCAR-8 > 24.5 µM | Malme-3M 5.83 µM
6.95 µM: HCT-15

CN(C)CCOc1ccc2c(c1)C/C(=C/c1ncc([N+](=O)[O-])n1C)C2=O
0.377 µM: HCT-15
active: NCI-H23 1 µM | BT-549 1.04 µM | NCI-H460 0.508 µM | IGROV-1 0.233 µM | NCI-H522 0.918 µM | SR 0.242 µM | MCF7 0.703 µM
inactive: OVCAR-5 3.51 µM | SK-OV-3 4.8 µM | OVCAR-4 1.53 µM | SK-MEL-5 1.64 µM | U-251 3.51 µM | LOX IMVI 2.65 µM | RPMI-8226 1.37 µM | TK-10 3.52 µM | SW-620 1.6 µM | DU-145 3.13 µM | HOP-62 2.1 µM | CAKI-1 2.64 µM | RXF 393 1.17 µM | MDA-MB-435 2.99 µM | OVCAR-3 2.11 µM | SF-295 3.1 µM | CCRF-CEM 2.7 µM | K562 1.49 µM | SN12C 2.58 µM | MDA-MB-231 1.91 µM | UACC-62 1.95 µM | MDA-N 3.94 µM | A549 1.17 µM | SF-539 3.97 µM | COLO 205 1.56 µM | SNB-75 2.28 µM | A498 2.23 µM | EKVX 3.61 µM | KM12 2.61 µM | ACHN 1.36 µM | NCI-H226 1.46 µM | Hs-578T 12.9 µM | UACC-257 3.79 µM | UO-31 1.68 µM | 786-0 1.82 µM | SK-MEL-28 17.6 µM | HL-60 3.25 µM | HT-29 1.35 µM | SF-268 1.89 µM | SK-MEL-2 1.67 µM | PC-3 3.4 µM | MOLT-4 1.21 µM | T47D 6.03 µM | SNB-19 3.39 µM | M14 2.29 µM | HCT-116 1.27 µM | NCI/ADR-RES 8.36 µM | HCC 2998 2.03 µM | HOP-92 1.83 µM | OVCAR-8 1.43 µM | Malme-3M 1.94 µM
